Results reported in ChEMBL document CHEMBL1133910, “N-hydroxyformamide peptidomimetics as TACE/matrix metalloprotease inhibitors: oral activity via P1' isobutyl substitution” (Bioorg Med Chem Lett, 2001).
Calls of active or inactive are those of the source. The rule behind the calls is not given here.

Columns and labels:
[1] = biological target: T1, Disintegrin and metalloproteinase domain-containing protein 17 (Homo sapiens, UniProt P78536); assay: Inhibition of Tumor necrosis factor alpha converting enzyme
T1 sequence (P78536 whole entry, the tested form may be a part): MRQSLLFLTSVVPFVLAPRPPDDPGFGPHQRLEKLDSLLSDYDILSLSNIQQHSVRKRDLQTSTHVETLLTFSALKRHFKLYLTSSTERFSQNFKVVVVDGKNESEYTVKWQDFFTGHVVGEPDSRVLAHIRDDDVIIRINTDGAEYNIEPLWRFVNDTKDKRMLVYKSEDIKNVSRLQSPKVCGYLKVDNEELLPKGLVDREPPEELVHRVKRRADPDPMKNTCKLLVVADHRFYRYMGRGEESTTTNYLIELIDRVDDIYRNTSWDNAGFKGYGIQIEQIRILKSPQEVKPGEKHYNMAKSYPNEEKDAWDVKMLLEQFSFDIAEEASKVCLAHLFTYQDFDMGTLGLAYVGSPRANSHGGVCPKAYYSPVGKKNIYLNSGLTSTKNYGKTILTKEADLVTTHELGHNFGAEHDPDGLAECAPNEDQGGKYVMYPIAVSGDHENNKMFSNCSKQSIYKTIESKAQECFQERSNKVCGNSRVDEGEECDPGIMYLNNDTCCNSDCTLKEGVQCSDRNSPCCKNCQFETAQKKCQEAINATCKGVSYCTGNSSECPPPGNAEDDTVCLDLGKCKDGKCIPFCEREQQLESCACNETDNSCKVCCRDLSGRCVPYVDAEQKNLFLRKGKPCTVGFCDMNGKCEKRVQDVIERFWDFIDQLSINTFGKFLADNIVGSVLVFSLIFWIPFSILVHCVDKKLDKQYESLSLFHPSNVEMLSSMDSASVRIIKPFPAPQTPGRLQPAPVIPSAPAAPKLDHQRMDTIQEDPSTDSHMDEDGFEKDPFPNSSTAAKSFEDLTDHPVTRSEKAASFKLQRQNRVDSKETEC

[2] = biological target: T2, Interstitial collagenase (Homo sapiens, UniProt P03956); assay: Inhibition of Matrix metalloprotease-1
T2 sequence (P03956 whole entry): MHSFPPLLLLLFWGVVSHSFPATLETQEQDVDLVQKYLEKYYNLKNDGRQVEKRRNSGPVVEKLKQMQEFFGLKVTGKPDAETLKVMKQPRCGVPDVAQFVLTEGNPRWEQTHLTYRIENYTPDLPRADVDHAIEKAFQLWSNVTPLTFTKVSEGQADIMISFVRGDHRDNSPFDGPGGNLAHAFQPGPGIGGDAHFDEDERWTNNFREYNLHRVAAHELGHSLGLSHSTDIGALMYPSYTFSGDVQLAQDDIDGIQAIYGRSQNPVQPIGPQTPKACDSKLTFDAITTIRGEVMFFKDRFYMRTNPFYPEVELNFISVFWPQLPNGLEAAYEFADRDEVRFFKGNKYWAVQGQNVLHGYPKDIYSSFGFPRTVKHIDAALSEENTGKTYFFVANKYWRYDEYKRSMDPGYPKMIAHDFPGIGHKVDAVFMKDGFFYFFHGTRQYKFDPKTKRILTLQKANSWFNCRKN

[3] = biological target: Matrix metalloproteinase-9 (Homo sapiens, UniProt P14780); assay: Inhibition of Matrix metalloprotease-9
Matrix metalloproteinase-9, sequence (P14780 whole entry): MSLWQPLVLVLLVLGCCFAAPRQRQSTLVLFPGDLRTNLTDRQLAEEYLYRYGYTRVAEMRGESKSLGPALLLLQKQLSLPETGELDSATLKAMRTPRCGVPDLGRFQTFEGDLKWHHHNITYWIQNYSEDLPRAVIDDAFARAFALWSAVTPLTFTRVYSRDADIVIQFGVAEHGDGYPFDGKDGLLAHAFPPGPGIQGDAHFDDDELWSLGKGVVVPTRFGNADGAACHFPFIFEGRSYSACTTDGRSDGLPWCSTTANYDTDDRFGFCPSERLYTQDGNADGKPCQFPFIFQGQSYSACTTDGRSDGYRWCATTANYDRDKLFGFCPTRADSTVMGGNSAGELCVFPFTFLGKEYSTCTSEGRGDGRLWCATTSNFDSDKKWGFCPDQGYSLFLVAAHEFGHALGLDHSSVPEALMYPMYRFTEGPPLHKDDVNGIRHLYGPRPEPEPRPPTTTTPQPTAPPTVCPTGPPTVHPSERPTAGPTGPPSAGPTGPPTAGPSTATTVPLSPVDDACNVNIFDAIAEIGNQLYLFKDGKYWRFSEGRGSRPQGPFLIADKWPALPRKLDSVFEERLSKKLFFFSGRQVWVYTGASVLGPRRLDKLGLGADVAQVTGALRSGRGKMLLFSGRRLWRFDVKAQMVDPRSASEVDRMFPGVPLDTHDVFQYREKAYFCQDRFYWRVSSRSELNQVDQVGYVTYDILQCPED

[4] = Compound was evaluated for inhibition of cellular release of TNF-alpha from MonoMac-6 cells; format: functional, cell-based; details: Homo sapiens, MONO-MAC-6
[5] = biological target: T3, Stromelysin-1 (Homo sapiens, UniProt P08254); assay: Inhibition of Matrix metalloprotease-3
T3 sequence (P08254 whole entry): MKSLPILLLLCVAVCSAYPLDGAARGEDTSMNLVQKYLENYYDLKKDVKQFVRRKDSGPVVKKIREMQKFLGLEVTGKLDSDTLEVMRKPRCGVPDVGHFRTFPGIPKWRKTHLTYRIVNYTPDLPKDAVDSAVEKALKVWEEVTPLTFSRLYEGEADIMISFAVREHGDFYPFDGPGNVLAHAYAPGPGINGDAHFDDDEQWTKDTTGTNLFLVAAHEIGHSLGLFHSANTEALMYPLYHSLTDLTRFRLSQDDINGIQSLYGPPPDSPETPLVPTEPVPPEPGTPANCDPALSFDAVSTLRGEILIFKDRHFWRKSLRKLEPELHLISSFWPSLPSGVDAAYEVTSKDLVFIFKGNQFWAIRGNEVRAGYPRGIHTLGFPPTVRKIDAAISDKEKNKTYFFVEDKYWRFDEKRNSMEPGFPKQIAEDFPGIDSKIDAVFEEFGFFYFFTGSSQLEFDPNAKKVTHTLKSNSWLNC

[6] = system: Mus musculus; assay: In vivo inhibition of Murine Lipopolysaccharide induced plasma TNF on peroral administration of the compound; IA means inactive; format: functional, organism-based
[7] = system: Mus musculus; assay: In vivo inhibition of Murine Lipopolysaccharide induced plasma TNF on peroral administration of the compound; format: functional; design: concentration or dose not given beside the values
[8] = biological target: T3, Stromelysin-1; assay: Inhibition of matrix metalloprotease-3 (MMP3)
[9] = Bioavailability by intravenous administration of 3.4 mg/kg in rat; format: ADME, organism-based; details: in vivo
[10] = Clearance by intravenous administration of 1.2 mg/kg in dog; format: ADME, organism-based, Canis lupus familiaris; design: dose 1.2 mg/kg, route intravenous; details: in vivo
[11] = Half life by intravenous administration of 1.2 mg/kg in dog; format: ADME, organism-based, Canis lupus familiaris; design: dose 1.2 mg/kg, route intravenous; details: in vivo
[12] = Maximum concentration by intravenous administration of 1.2 mg/kg in dog; format: ADME, organism-based, Canis lupus familiaris; design: dose 1.2 mg/kg, route intravenous; details: in vivo
[13] = Bioavailability by intravenous administration of 1.2 mg/kg in dog; format: ADME, organism-based, Canis lupus familiaris; details: in vivo
[14] = Area under curve was determined for the compound by intravenous administration of 1.2 mg/kg in dog; format: ADME, organism-based, Canis lupus familiaris; design: dose 1.2 mg/kg, route intravenous; details: in vivo
[15] = Area under curve was determined for the compound by intravenous administration of 3.4 mg/kg in rat; format: ADME, organism-based; design: dose 3.4 mg/kg, route intravenous; details: in vivo
[16] = Maximum concentration by intravenous administration of 3.4 mg/kg in rat; format: ADME, organism-based; design: dose 3.4 mg/kg, route intravenous; details: in vivo
[17] = Clearance by intravenous administration of 3.4 mg/kg in rat; format: ADME, organism-based; design: dose 3.4 mg/kg, route intravenous; details: in vivo
[18] = system: Mus musculus; assay: Percent inhibition of Murine Lipopolysaccharide induced plasma TNF on peroral administration of the compound; format: functional
[19] = Half life by intravenous administration of 3.4 mg/kg in rat; format: ADME, organism-based; design: dose 3.4 mg/kg, route intravenous; details: in vivo
[20] = system: Mus musculus; assay: In vivo inhibition of Murine Lipopolysaccharide induced plasma TNF on peroral administration of the compound; IA means Inactive; format: functional, organism-based
[21] = biological target: T1, Disintegrin and metalloproteinase domain-containing protein 17; assay: Inhibition of TNF-alpha converting enzyme (TACE)

Work on `CC(C)C[C@@H](C(=O)N[C@H](C(N)=O)C(C)(C)C)[C@H](C)N(O)C=O` yielded a Ki [1] of 0.156 µM, a Ki [2] of 0.181 µM and a Ki [3] of 0.033 µM. It also gave an IC50 [4] of 3.07 µM and a Ki [5] of 0.406 µM.
With `CC(C)C[C@H](NC(=O)[C@H](CC(C)C)[C@H](C)N(O)C=O)C(=O)Nc1nccs1` the Ki [1] was 0.055 µM, the Ki [2] was 0.097 µM and the inhibition [6] was “inactive”. The Ki [3] was 0.017 µM, the IC50 [4] was 1.69 µM and the Ki [5] was 0.08 µM.
Work on `CC[C@@H]([C@@H](CC(C)C)C(=O)N[C@H](C(=O)Nc1nccs1)C(C)(C)C)N(O)C=O` yielded a Ki [1] of 0.016 µM, an Inhibition [7] of 52% and a Ki [2] of 0.016 µM. For the same compound, the Ki [8] was 0.135 µM, the Ki [3] was 0.028 µM and the IC50 [4] was 0.2 µM.
`CC(C)C[C@@H](C(=O)N[C@H](C(=O)Nc1nccs1)C(C)(C)C)[C@H](C)N(O)C=O` showed a bioavailability [9] of 26%, a Ki [1] of 0.02 µM and a clearance [10] of 10 mL/min/kg. For the same compound, the half-life [11] was 2.8 h, the Cmax [12] was 4530 ng/mL and the bioavailability [13] was 44%. For the same compound, the Ki [2] was 0.027 µM, the AUC [14] was 2100 ng·h/mL and the AUC [15] was 957 ng·h/mL. For the same compound, the Cmax [16] was 2330 ng/mL, the clearance [17] was 62 mL/min/kg and the Inhibition [18] was 60%. For the same compound, the Ki [3] was 0.034 µM, the IC50 [4] was 0.245 µM and the Ki [5] was 0.437 µM. The half-life [19] was 3.4 h.
With `CCC(C)[C@H](NC(=O)[C@H](CC(C)C)[C@H](CC)N(O)C=O)C(=O)Nc1ccccn1` (stereo not given in full) the Ki [1] was 0.031 µM, the Inhibition [7] was 62% and the Ki [2] was 0.055 µM. It also gave a Ki [8] of 0.038 µM, a Ki [3] of 0.073 µM and an IC50 [4] of 1.41 µM.
`CC[C@H](C)[C@H](NC(=O)[C@H](CC(C)C)[C@H](CC)N(O)C=O)C(=O)Nc1nccs1` showed a Ki [1] of 0.011 µM, an Inhibition [7] of 48% and a Ki [2] of 0.042 µM. For the same compound, the Ki [8] was 0.045 µM, the Ki [3] was 0.024 µM and the IC50 [4] was 0.092 µM.
Work on `CC(C)C[C@@H](C(=O)N[C@H](C(=O)Nc1nccs1)C(C)C)[C@H](C)N(O)C=O` yielded a Ki [1] of 0.027 µM, an Inhibition [7] of 61% and a Ki [2] of 0.036 µM. It also gave a Ki [3] of 0.017 µM, an IC50 [4] of 0.681 µM and a Ki [5] of 0.12 µM.
In the case of `CC(C)C[C@@H](C(=O)N[C@@H](CC(C)(C)C)C(=O)Nc1nccs1)[C@H](C)N(O)C=O`, the Ki [1] is reported as 0.064 µM, the Ki [2] is reported as 0.17 µM and the inhibition [6] is reported as “inactive”. For the same compound, the Ki [3] was 0.098 µM, the IC50 [4] was 3.96 µM and the Ki [5] was 0.354 µM.
In the case of `CNC(=O)[C@@H](NC(=O)[C@@H](CC(=O)NO)CC(C)C)C(C)(C)C` [RO-319790], the inhibition [20] is reported as “inactive”, the Ki [2] is reported as 0.002 µM and the Ki [21] is reported as 0.087 µM. For the same compound, the Ki [3] was 0.002 µM, the IC50 [4] was 5.72 µM and the Ki [5] was 0.31 µM.
In the case of `CNC(=O)[C@@H](NC(=O)[C@H](CC(C)C)[C@H](C)N(O)C=O)C(C)(C)C`, the Ki [1] is reported as 0.142 µM, the Ki [2] is reported as 0.017 µM and the Ki [3] is reported as 0.021 µM. It also gave an IC50 [4] of 2.95 µM and a Ki [5] of 2.32 µM.
`CC[C@H](C)C(NC(=O)[C@H](CC(C)C)[C@H](C)N(O)C=O)C(=O)Nc1nccs1` (single isomer, unassigned) showed a Ki [1] of 0.02 µM, an Inhibition [7] of 48% and a Ki [2] of 0.041 µM. For the same compound, the Ki [3] was 0.029 µM, the IC50 [4] was 0.27 µM and the Ki [5] was 0.093 µM.
Compound `CC[C@@H]([C@@H](CC(C)C)C(=O)N[C@H](C(=O)Nc1ccccn1)C(C)(C)C)N(O)C=O` has a Ki [1] of 0.029 µM, an Inhibition [7] of 61% and a Ki [2] of 0.047 µM. It also gave a Ki [8] of 0.153 µM, a Ki [3] of 0.089 µM and an IC50 [4] of 0.304 µM.
